Reference: paper PMC8213057, “Targeting ALK2: An Open Science Approach to Developing Therapeutics for the Treatment of Diffuse Intrinsic Pontine Glioma” (Journal of Medicinal Chemistry, 2020)

Key:
KSR1 = biological target: T1, KSR1 (Homo sapiens, UniProt Q8IVT5); experiment: biochemical; settings: read-out: % enzyme activity, 1 μM; Run 1, Run 2
T1 sequence (Q8IVT5 1-923): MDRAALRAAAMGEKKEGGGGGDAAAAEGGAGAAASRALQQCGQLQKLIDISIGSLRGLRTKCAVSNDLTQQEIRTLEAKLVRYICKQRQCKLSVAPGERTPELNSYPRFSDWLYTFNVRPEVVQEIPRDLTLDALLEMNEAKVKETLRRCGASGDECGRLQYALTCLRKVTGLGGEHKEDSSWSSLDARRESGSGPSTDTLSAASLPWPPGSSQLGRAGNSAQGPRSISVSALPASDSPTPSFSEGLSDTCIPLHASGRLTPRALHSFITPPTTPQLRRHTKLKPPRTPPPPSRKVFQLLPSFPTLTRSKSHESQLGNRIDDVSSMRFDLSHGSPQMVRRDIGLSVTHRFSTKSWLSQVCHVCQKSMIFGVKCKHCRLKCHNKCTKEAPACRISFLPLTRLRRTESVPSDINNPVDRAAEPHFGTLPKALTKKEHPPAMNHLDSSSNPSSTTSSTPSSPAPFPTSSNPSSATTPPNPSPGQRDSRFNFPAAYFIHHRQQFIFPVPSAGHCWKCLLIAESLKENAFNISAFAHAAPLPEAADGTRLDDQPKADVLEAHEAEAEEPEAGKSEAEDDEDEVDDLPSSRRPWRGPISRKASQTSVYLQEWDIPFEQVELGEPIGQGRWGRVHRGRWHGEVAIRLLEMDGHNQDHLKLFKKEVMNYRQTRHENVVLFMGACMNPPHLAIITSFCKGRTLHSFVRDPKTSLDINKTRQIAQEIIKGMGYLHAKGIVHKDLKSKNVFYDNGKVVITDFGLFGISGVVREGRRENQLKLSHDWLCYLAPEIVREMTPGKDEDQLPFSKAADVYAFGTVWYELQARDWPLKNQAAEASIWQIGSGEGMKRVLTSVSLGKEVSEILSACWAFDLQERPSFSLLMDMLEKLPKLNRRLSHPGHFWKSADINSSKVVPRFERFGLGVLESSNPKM

PKAcg [1] = biological target: T2, PKAcg (Homo sapiens, UniProt P22612); experiment: biochemical; settings: read-out: % enzyme activity, 1 μM; Run 1, Run 2
MLK4 = MLK4 (Homo sapiens, UniProt Q5TCX8); settings: 1 μM; Run 1, Run 2
CK2a2 = CK2a2 (Homo sapiens, UniProt P19784); experiment: biochemical; settings: read-out: % enzyme activity, 1 μM; Run 1, Run 2
NEK6 = NEK6 (Homo sapiens, UniProt Q9HC98); settings: 1 μM; Run 1, Run 2
CDK7/cyclin H = CDK7/cyclin H (Homo sapiens, UniProt P50613); settings: 1 μM; Run 1, Run 2
CDK2/cyclin E = CDK2/cyclin E (Homo sapiens, UniProt P24941); experiment: biochemical; settings: read-out: % enzyme activity, 1 μM; Run 1, Run 2
MYO3A = MYO3A (Homo sapiens, UniProt Q8NEV4); settings: 1 μM; Run 1, Run 2
MARK2/PAR-1Ba = MARK2/PAR-1Ba (Homo sapiens, UniProt Q7KZI7); settings: 1 μM; Run 1, Run 2
PAK1 = PAK1 (Homo sapiens, UniProt Q13153); experiment: biochemical; settings: read-out: % enzyme activity, 1 μM; Run 1, Run 2
LYN = LYN (Homo sapiens, UniProt P07948); experiment: biochemical; settings: read-out: % enzyme activity, 1 μM; Run 1, Run 2
DMPK2 = DMPK2 (Homo sapiens, UniProt Q6DT37); settings: 1 μM; Run 1, Run 2
PKAcg [2] = biological target: T2, PKAcg; settings: 1 μM; Run 1, Run 2
SNRK = biological target: T3, SNRK (Homo sapiens, UniProt Q9NRH2); experiment: biochemical; settings: read-out: % enzyme activity, 1 μM; Run 1, Run 2
T3 sequence (Q9NRH2 1-765): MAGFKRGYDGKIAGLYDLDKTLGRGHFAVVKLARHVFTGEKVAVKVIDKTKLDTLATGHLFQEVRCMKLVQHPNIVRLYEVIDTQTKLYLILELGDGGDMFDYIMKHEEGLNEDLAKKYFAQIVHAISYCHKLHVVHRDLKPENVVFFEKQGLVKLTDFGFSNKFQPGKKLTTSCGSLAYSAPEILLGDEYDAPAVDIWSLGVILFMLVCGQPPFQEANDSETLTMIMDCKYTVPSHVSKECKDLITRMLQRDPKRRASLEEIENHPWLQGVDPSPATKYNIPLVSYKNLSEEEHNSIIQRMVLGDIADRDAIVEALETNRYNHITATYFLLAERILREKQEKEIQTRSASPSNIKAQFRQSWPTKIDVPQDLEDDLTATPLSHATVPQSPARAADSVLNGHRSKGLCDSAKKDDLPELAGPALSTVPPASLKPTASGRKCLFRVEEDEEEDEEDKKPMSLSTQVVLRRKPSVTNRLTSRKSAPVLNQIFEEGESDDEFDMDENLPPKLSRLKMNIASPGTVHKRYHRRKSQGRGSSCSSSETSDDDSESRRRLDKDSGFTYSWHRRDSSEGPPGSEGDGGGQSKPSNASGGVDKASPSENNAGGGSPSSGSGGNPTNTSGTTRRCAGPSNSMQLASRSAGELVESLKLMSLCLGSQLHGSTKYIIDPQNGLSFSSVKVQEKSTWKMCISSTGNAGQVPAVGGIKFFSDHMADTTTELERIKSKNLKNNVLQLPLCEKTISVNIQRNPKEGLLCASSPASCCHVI

RSK4 = RSK4 (Homo sapiens, UniProt Q9UK32); experiment: biochemical; settings: read-out: % enzyme activity, 1 μM; Run 1, Run 2
HPK1/MAP4K1 = HPK1/MAP4K1 (Homo sapiens, UniProt Q92918); experiment: biochemical; settings: read-out: % enzyme activity, 1 μM; Run 1, Run 2
Sequence of HPK1/MAP4K1 (Q92918 whole entry): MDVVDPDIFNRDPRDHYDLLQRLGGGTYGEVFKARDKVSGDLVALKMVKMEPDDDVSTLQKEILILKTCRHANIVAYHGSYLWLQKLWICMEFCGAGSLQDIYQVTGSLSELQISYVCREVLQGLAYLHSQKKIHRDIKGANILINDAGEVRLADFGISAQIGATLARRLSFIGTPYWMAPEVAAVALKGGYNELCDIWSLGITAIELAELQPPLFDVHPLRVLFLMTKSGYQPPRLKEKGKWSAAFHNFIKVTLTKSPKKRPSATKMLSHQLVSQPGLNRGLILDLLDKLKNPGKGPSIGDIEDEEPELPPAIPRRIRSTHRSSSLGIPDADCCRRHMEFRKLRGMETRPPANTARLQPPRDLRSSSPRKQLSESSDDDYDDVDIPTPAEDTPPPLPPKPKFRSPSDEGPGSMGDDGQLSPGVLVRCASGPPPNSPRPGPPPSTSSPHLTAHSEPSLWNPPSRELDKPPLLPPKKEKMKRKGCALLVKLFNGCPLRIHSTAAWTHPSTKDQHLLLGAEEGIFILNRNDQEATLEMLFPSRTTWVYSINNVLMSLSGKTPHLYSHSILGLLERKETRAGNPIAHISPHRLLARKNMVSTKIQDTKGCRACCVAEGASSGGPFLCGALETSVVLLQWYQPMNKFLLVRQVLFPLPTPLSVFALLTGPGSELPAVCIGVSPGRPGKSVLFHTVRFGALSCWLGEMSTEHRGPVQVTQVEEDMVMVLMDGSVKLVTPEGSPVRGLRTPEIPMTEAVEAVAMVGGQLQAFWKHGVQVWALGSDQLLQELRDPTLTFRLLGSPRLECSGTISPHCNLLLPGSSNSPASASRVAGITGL

T2 sequence (P22612 whole entry): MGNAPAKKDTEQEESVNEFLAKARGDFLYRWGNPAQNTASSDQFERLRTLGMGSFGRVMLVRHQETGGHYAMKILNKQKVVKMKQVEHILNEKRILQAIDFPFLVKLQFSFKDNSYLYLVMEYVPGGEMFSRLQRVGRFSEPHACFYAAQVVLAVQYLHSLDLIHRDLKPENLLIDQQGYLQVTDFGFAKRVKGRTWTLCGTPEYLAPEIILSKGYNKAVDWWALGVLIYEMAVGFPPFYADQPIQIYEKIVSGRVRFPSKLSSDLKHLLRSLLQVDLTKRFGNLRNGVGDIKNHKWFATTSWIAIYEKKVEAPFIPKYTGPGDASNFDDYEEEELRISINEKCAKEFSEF
Sequence of RSK4 (Q9UK32 whole entry): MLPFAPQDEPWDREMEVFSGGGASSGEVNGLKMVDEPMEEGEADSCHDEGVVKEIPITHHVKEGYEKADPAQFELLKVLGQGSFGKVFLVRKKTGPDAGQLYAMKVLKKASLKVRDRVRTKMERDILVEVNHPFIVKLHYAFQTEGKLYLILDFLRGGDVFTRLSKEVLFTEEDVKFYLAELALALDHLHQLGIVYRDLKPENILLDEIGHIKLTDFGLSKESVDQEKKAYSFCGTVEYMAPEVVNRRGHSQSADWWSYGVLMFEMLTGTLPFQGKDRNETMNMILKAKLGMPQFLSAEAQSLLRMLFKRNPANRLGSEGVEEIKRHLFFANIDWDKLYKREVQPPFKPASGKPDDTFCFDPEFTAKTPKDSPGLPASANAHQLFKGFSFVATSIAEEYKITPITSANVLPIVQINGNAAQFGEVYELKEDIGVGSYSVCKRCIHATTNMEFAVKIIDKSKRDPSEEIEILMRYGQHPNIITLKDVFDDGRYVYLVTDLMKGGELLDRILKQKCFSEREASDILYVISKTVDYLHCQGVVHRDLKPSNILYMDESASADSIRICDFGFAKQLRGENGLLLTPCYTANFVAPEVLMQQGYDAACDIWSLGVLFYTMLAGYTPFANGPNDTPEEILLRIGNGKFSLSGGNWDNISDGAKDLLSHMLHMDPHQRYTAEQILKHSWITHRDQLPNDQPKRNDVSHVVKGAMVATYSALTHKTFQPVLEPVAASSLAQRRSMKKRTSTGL
Sequence of DMPK2 (Q6DT37 whole entry): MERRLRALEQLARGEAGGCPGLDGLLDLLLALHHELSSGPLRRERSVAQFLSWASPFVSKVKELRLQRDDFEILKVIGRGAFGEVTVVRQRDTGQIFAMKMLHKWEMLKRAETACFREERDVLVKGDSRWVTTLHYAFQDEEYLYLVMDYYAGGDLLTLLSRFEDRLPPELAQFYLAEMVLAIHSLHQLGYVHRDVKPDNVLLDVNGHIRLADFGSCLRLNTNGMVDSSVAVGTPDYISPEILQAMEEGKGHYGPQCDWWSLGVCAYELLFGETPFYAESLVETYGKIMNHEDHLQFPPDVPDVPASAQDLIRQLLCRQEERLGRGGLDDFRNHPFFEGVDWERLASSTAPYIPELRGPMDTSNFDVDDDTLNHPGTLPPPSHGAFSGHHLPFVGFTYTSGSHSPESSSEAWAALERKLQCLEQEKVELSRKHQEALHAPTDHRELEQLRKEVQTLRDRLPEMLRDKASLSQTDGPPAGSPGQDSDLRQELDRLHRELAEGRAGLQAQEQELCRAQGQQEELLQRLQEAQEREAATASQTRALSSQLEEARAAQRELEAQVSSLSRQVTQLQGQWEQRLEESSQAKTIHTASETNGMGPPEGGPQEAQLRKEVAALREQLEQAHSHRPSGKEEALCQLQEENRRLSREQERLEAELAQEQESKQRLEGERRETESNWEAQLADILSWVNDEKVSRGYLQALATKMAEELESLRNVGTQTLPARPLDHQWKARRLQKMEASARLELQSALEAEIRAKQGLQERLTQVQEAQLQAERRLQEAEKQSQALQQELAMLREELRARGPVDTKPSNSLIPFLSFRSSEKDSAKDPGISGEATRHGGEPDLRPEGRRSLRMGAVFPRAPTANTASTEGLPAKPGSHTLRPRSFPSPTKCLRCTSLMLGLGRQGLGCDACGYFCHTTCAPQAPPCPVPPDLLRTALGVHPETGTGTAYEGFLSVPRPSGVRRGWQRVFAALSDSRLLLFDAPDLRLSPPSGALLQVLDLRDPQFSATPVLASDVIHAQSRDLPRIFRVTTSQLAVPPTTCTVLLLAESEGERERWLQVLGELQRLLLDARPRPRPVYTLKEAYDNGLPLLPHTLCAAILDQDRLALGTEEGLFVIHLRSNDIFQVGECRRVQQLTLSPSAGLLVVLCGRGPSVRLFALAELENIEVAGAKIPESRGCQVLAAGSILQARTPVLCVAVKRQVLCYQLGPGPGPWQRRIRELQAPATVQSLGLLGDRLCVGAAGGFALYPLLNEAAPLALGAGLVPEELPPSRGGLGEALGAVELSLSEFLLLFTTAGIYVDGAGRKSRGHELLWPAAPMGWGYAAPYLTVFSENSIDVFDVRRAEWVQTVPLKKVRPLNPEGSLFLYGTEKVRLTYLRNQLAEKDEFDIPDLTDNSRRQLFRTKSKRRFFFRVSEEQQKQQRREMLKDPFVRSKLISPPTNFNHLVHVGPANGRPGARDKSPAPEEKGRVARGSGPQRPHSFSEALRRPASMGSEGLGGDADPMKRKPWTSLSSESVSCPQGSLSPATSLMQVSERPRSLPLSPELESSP
Sequence of MARK2/PAR-1Ba (Q7KZI7 whole entry): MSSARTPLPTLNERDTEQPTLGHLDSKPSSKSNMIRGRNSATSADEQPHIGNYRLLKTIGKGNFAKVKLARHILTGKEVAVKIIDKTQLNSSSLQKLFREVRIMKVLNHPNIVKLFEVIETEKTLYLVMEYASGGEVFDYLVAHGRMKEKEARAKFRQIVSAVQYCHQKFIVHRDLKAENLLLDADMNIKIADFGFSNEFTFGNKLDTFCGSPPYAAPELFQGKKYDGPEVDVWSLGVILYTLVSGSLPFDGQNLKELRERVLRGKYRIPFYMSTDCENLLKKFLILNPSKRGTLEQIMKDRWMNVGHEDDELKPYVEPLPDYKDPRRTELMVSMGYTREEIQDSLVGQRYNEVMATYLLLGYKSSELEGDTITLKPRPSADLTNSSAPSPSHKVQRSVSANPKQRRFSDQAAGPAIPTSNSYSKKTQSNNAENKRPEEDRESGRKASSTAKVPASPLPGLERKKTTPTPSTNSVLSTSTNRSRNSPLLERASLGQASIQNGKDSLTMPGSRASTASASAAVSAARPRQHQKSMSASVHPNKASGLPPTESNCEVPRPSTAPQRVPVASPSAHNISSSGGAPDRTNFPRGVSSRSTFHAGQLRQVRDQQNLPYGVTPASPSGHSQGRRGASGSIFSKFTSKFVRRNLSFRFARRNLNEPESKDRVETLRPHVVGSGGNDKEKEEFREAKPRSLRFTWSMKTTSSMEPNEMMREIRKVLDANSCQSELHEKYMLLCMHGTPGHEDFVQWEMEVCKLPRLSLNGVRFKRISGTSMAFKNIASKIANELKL
Sequence of NEK6 (Q9HC98 whole entry): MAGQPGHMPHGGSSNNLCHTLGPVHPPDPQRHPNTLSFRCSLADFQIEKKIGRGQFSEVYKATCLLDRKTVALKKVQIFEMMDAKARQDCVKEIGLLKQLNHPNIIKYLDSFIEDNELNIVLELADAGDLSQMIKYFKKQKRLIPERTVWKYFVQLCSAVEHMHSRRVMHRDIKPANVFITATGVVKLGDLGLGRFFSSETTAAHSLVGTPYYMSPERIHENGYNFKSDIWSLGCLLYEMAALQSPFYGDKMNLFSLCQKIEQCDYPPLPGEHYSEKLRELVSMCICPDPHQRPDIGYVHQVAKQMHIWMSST
Sequence of CK2a2 (P19784 whole entry): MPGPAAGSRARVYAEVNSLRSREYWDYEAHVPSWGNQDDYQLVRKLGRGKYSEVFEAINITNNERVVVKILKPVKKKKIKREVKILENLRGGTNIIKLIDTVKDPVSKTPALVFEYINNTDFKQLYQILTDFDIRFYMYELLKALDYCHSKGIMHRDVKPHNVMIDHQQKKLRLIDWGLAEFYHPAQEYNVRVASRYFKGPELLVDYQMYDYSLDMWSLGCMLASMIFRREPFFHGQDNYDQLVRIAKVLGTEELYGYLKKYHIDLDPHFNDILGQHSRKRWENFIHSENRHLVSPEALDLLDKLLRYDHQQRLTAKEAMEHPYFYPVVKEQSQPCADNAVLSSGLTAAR

| Compound | remaining activity at 1 µM (KSR1) | remaining activity at 1 µM (PKAcg [1]) | % enzyme activity (MLK4) | remaining activity at 1 µM (CK2a2) | % enzyme activity (NEK6) | % enzyme activity (CDK7/cyclin H) | remaining activity at 1 µM (CDK2/cyclin E) | % enzyme activity (MYO3A) | % enzyme activity (MARK2/PAR-1Ba) | remaining activity at 1 µM (PAK1) | remaining activity at 1 µM (LYN) | % enzyme activity (DMPK2) | % enzyme activity (PKAcg [2]) | remaining activity at 1 µM (SNRK) | remaining activity at 1 µM (RSK4) | remaining activity at 1 µM (HPK1/MAP4K1) |
| --- | --- | --- | --- | --- | --- | --- | --- | --- | --- | --- | --- | --- | --- | --- | --- | --- |
| COc1cc(-c2cncc(-c3ccc(N4CCN(C)CC4)cc3)c2C)cc(F)c1C(N)=O [Compound 26a, 2-Fluoro-6-methoxy-4-(4-methyl-5-(4-(4-methylpiperazin-1-yl)phenyl)pyridin-3-yl)benzamide] | 94.5% | 94.1% | 95.21% | 95.3% | 98.81% | 93.27% | 105% | 81.86% | 91.66% | 105% | 79.9% | 82.52% | 93.99% | 105% | 96% | 58.7% |
| COc1cc(-c2cncc(-c3ccc(N4C[C@@H](C)N(C)[C@@H](C)C4)cc3)c2C)cc(F)c1C(N)=O [Compound 26c, 2-Fluoro-6-methoxy-4-(4-methyl-5-(4-((3R,5S)-3,4,5-trimethylpiperazin-1-yl)phenyl)pyridin-3-yl)benzamide] | 96.3% | 101% | 93.38% | 101% | 103.36% | 95.50% | 102% | 94.68% | 103.03% | 103% | 91% | 86.97% | 98.97% | 100% | 95.5% | 74.7% |
